# Test results published in US20180028712A1, “SKIN-REGENERATING MATERIAL COMPRISING SYNERGISTIC COMBINATION OF METAL OXIDES” (ARGAMAN TECHNOLOGIES LTD., priority 2015, published 2018).
# Columns and labels:
# [1] = tested on: Human Foreskin Fibroblasts (HFF); conditions: 24 hours following the plate scratching
# Method: (§1) For the treatments, the saturated solutions were diluted 1:10, 1:100, and 1:500 in the growth medium in a supernatant.
# HFF cells were thawed and passaged at least once prior to assay performance.
# HFF cell line = experiment: Proliferation assay (Stage II), Alamar Blue viability of HFF cells
# Method: as §1
# HFF cells were thawed and passaged at least once prior to assay performance. Exponentially growing culture was collected, centrifuged, counted and seeded in 96-well tissue culture plate at a density of 5000 cells/well.
# The plate was incubated overnight at 37° C., humidified 5% CO2/air., to enable cells adherence to the wells.
# The next day, the growth medium was replaced with the test item solutions in 5% and 1% FBS and vehicle control solution to achieve the final concentrations as designated in the following plate plan (final volume of 200 μl)
# Plates were incubated for 24 hours at 37° C., humidified 5% CO2/air.
# Following 24 hours, the medium was replaced with fresh growth medium containing 10% of Alamar Blue.
smiles,measurement,setting,value
"[Ag+].[Ag+].[Ag+].[Ag+].[O-2].[O-2].[O-2].[O-2] [TST, tetrasilver tetroxide]",observation of scratched monolayer (proliferation along the scratch),"[1]; diluted 1:100, compared to control group",many proliferation centers along the scratch
same,observation of scratched monolayer (cytotoxicity),[1]; saturated solution diluted 1:10,cytotoxic
same,cell proliferation / cytotoxicity result in words,"HFF cell line; HFF cells, 24 hours, summary of Table 1",cytotoxic
same,Number of cells (normalized),"HFF cell line; percent viability on HFF cell line, 24 hours incubation and 4 hours with Alamar Blue, control = 100",85
